pIC50: −log10 of the molar value.
Experiments:
[1] = system: SARS-COV2 virus, BetaCoV/France/IDF0371/2020; experiment: Antiviral activity against SARS-COV2 coronavirus in VeroE6 cells (viral RNA by qRT-PCR); format: cell-based; conditions: 1.25 μM, 24 h
[2] = system: WNV virus, Kunjin strain (KUNV); experiment: Antiviral activity against the WNV virus Kunjin strain in HeLa cells (nanoluciferase reporter); format: cell-based; conditions: West Nile virus, KUNV-luciferase reporter virus, MOI=0.1, 24 h
[3] = system: CHIKV virus, LR-OPY1 strain; experiment: Antiviral activity against the Chikungunya virus in HeLa cells (luciferase/GFP reporter); conditions: for pIC50: Chikungunya virus, HeLa, 24 h, read-out: IC50 CKV
ZIKV BeH8 strain = experiment: Antiviral activity against the Zika virus in HeLa cells (viral RNA by qRT-PCR); conditions: for pIC50: Zika virus, HeLa, 24 h, read-out: IC50 ZIKV
[4] = system: MAYV virus, TRVL4576 strain; experiment: Antiviral activity against the Mayaro virus in HeLa cells (luciferase reporter); conditions: 24 h, read-out: IC50 MAYV

Row | SMILES | effect on infection of the cells by the SARS-COV2 virus [1] | pIC50 [2] | pIC50 [3] | pIC50 (ZIKV BeH8 strain) | concentration that prevents infection of the Hela cells by the Chikungunya virus ([3]; HeLa cells, MOI=0.1, 24 h) | concentration that prevents infection of the Hela cells by the strain ZIKV BeH-8 (ZIKV BeH8 strain; HeLa cells, MOI=0.1, 24 h) | pIC50 [4]
1 | O=C(Nc1ccc(F)cc1)C1(C(=O)Nc2cccc(-c3c[nH]c4ncc(-c5ccccc5)cc34)c2)CC1 [Compound 5, Cyclopropane-1,1-dicarboxylic acid (4-fluoro-phenyl)-amide [3-(5-phenyl-1H-pyrrolo[2,3-b]pyridin-3-yl)-phenyl]-amide] | reduces the infection | – | – | – | – | – | –
2 | Cc1ccc(C(=O)Nc2ccc(F)c(-c3c[nH]c4ncc(-c5ccccc5)cc34)c2)c(=O)n1-c1ccc(F)cc1 [Compound 15, 1-(4-fluorophenyl)-6-methyl-2-oxo-1,2-dihydro-pyridine-3-carboxylic acid [4-fluoro-3-(5-phenyl-1H-pyrrolo[2,3-b]pyridin-3-yl)-phenyl]-amide] | – | 6.03 | – | – | – | – | –
3 | Nc1nc(Nc2ccc3c(c2)CC[C@@H](N2CCCC2)CC3)nn1-c1cc2c(nn1)-c1ccccc1CCC2 [R428/Bemcentinib, reference compound] | – | – | 6.62 | 6.55 | – | – | –
4 | Cc1ccc(C(=O)Nc2cccc(-c3c[nH]c4ncc(-c5ccccc5)cc34)c2)c(=O)n1-c1ccc(F)cc1 [Compound 4, 1-(4-fluorophenyl)-6-methyl-2-oxo-1,2-dihydro-pyridine-3-carboxylic acid [3-(5-phenyl-1H-pyrrolo[2,3-b]pyridin-3-yl)-phenyl]-amide] | – | 5.88 | 6.61 | 6.54 | greater than or equal to 100 nM | greater than or equal to 100 nM | 6.50
